Assay results reported in patent US10925858B2, “S-nitrosoglutathione (GSNO) and GSNO reductase inhibitors for use in therapy” (MUSC FOUNDATION FOR RESEARCH DEVELOPMENT, priority 2017, dated 2021).

Key:
[1] = test system: IFN-γ, IL-4, IL-17, IL-10; assay: ELISA of CD4+ T cell subset specific cytokines in culture media of CNS derived lymphocytes of EAE mice; type: in vivo, C57BL/6 mice; details: N6022 1 mg/kg/day
Method: Female C57BL/6 mice of 8-12 weeks of age, purchased from Jackson Laboratory, were provided with food and water ad libitum and were kept in pathogen free animal care facility of Medical University of South Carolina (MUSC) throughout the study. All procedures were conducted in accordance with accepted standards of humane care as approved by the Institutional Animal Care and Use Committee (Approved number: AR #1644). EAE was induced as described previously (Nath et al., 2009). Briefly, mice were immunized subcutaneously in the flank regions with MOG35-55 peptide (MOG; 200 μg; Peptide International) emulsified (1:1) in 100 ul complete Freund's adjuvant (CFA) on day 0 and day 7. Additionally, 300 ng of Pertussis toxin (Sigma-Aldrich, St. Louis, Mo.) was given on day 0 and day 2 by i.p. injection. Pertussis toxin used as per the standardized protocol reported by us and other investigators for the induction of EAE (Nath et al., 2009). Similarly, healthy control group received subcutaneous injection of PBS and CFA emulsion on day 0 and day 7. Clinical signs of EAE were scored by examiners blinded to experimental treatments using the following scale: 0=no clinical signs of disease; 1=piloerection and sluggish; 2=limp tail (ataxia); 2.5=ataxia with partial hind limb paralysis; 3=full paralysis of hind limb; 3.5=full paralysis of hind limb with paralysis of one fore limb; 4=full paralysis of two limbs; 4.5=moribund stage; 5=death. […] The drug treatments were continued till the termination of the study (day 41 post immunization). EAE animals without drug treatment received PBS. Likewise, healthy controls received vehicle.
Fluorescence flow cytometry analysis for each subset of CD4+ T cells (TH1, TH2, TH17, CD4+CD25+ FOXP3+ Treg, and CD4+CD25+ FOXP3− Treg) were performed based on our previous report with modification (Nath et al., 2004). Briefly, control mice, EAE mice. EAE mice treated with GSNO. […] Following the preparation of single cell suspension, red blood cells were lysed with Pharma lyse buffer (BD Pharmingen™) and the remaining spleen cells were washed with RPMI 1640. The isolated CD4+ T cells were then resuspended with complete RPMI-media in 12-well plates (5×10^6 cells' 2 ml per well) containing MOG peptide (25 μg/ml) for 48 hrs. […] The cell pellets were washed with cell staining solution (ebioscience, Waltham, Mass. USA) and stained with fluorescence labeled antibody specific to IFN-γ for TH1. […] The cells were counted and analyzed using Beackman Coulter instrument (Beckman Coulter, Inc., Brea, Calif., USA).
ELISA assay was performed for analysis of CD4+ T cell subset specific cytokines released from cultured cells or spinal cord tissues. […] The equal amounts of proteins were analyzed for ELISA for IFN-γ. […]

[2] = test system: IFN-γ, IL-17; assay: IFN-γ and IL-17 in spinal cords of passively immunized EAE mice, ELISA; type: in vivo, SJL mice; details: T cells from GSNO treated vs untreated EAE mice
Method: At the peak of EAE disease, the mice were sacrificed and CD4+ T cells were purified from draining lymph nodes (DLN) and spleens by CD4+ T cell isolation kit (Miltenyi, Auburn. Calif.). The purified T cells (2.5×10^6 cells/ml) were cultured in 96-well round-bottom microculture plates (Falcon Labware, Oxnard, Calif.) in RPMI-complete media containing RPMI 1640 (Life Technologies, Gaithersburg, Md.), 10% FBS, and 100 μg/ml streptomycin and penicillin (Atlanta Biologicals Norcross, Ga.), 1 mM glutamine, 1 mM nonessential amino acids, and 50 μM 2-mercaptoethanol (Sigma-Aldrich). For skewing of different CD4+ T cell subsets and their expansion, the isolated CD4+ T cells were stimulated with PLP139-151 (5 μg/ml) with IL-2 (10 ng/ml) for TH0, IL-2 (10 ng/ml), rhIL-12p35 (10 ng/ml), and anti-IL-4 (1 μg/ml) for TH1, or recombinant mouse IL-12/23p40 homodimer (10 ng/ml), anti-IFN-γ 1 (μg/ml), anti-IL-4 (1 μg/ml) for TO 17. All cytokines and antibodies were purchased from BD Biosciences (San Diego, Calif.). […]
(20-30×10^6 T cells in 300 μl RPMI media per mouse) were injected to naive SJL female mice (8-10 week old) via intraperitoneal route. […] Clinical EAE disease was measured as describe above.

[3] = test system: passive EAE disease; assay: Adoptive transfer model of EAE (passive EAE), clinical disease; type: in vivo, SJL mice
Method: EAE disease was induced in 8- to 10-week-old female SJL mice by immunization with an emulsion (100 μl, subcutaneous) of proteolipid protein peptide (PLP139-151; Peptide International. Louisville, Ky.) and 200 μg of killed Mycobacterium tuberculosis H37Ra (Difco, Detroit, Mich., USA) followed by booster on day 7 as described previously (Nath et al., 2010). The mice additionally received pertussis toxin (Sigma-Aldrich, St. Louis, Mo.; 200 ng/300 μl PBS, intravenous) on day 0 and 3 post-immunization. On the day of immunization, one group of mice received 100 μl phosphate buffered saline (PBS) and the second group of mice received daily GSNO (1.0 mg/kg, 100 μl/PBS) via oral route GSNO was purchased from World Precision Instruments (Sarasota, Fla.) and its concentration was adjusted spectrophotometrically at 334 nm. Individual animals were observed daily for clinical disease severity by an investigator, blinded to experimental treatments, on a 0-5 scale as follows: 0=no abnormality; 1=piloerection, sluggish, 2=limp tail; 2.5=hind limb weakness (legs slip through cage top); 3=hind limb paralysis, 4=hind and forelimb paralysis; and 5=moribund.
At the peak of EAE disease, the mice were sacrificed and CD4+ T cells were purified from draining lymph nodes (DLN) and spleens by CD4+ T cell isolation kit (Miltenyi, Auburn. Calif.). The purified T cells (2.5×10^6 cells/ml) were cultured in 96-well round-bottom microculture plates (Falcon Labware, Oxnard, Calif.) in RPMI-complete media containing RPMI 1640 (Life Technologies, Gaithersburg, Md.), 10% FBS, and 100 μg/ml streptomycin and penicillin (Atlanta Biologicals Norcross, Ga.), 1 mM glutamine, 1 mM nonessential amino acids, and 50 μM 2-mercaptoethanol (Sigma-Aldrich). For skewing of different CD4+ T cell subsets and their expansion, the isolated CD4+ T cells were stimulated with PLP139-151 (5 μg/ml) with IL-2 (10 ng/ml) for TH0, IL-2 (10 ng/ml), rhIL-12p35 (10 ng/ml), and anti-IL-4 (1 μg/ml) for TH1, or recombinant mouse IL-12/23p40 homodimer (10 ng/ml), anti-IFN-γ 1 (μg/ml), anti-IL-4 (1 μg/ml) for TO 17. All cytokines and antibodies were purchased from BD Biosciences (San Diego, Calif.). Following stimulation, the cells were harvested for adoptive transfer of EAE disease and the culture supernatants were collected for analysis of IFN-γ, IL-17, and IL-10 expression by ELISA (Biolegend Cat #430802, 432505, and 431411; San Diego, Calif.).
(20-30×10^6 T cells in 300 μl RPMI media per mouse) were injected to naive SJL female mice (8-10 week old) via intraperitoneal route. The recipient mice were also given two doses of pertussis toxin (200 ng/300 μl of PBS/i.p.) on day 0 and 2 of post immunization. Clinical EAE disease was measured as describe above.

[4] = daily GSNO treatment of recipient mice

SMILES | IFN-γ in culture media of CNS derived lymphocytes [1] | IL-4 release of CNS derived lymphocytes [1] | IL-17 in culture media of CNS derived lymphocytes [1] | IL-10 expression of CNS derived lymphocytes ([1]; vs control levels) | IFN-γ in the spinal cords of passively immunized mice [2] | IL-17 in the spinal cords of passively immunized mice [2] | passive EAE disease severity, recipients of T cells from GSNO treated EAE mice treated with GSNO during the disease [3, 4] | passive EAE disease, recipients of T cells from untreated EAE mice treated with GSNO during the disease [3, 4] | passive EAE disease after transfer of T cells from GSNO treated EAE mice ([3]; recipients without GSNO, vs T cells from untreated EAE mice) | passive EAE disease after transfer of TH1 and TH17 skewed T cells from GSNO treated EAE mice ([3]; vs T cells from untreated EAE mice)
Cc1cc(C(N)=O)ccc1-n1c(CCC(=O)O)ccc1-c1ccc(-n2ccnc2)cc1 [N6022, reference compound] | decreased | increased | decreased | increased |  |  |  |  |  | 
N[C@@H](CCC(=O)N[C@@H](CSN=O)C(=O)NCC(=O)O)C(=O)O [GSNO, S-nitrosoglutathione] |  |  |  |  | comparable levels | significantly lower levels | further reduced | reduced the EAE disease | significantly delayed and milder disease | significantly milder EAE disease
